The test system of series [1] is Obese Zucker rats. The experiment in a line: In vivo assessment in obese Zucker rats: clinical chemistry (AP, BUN, CRT, AST, ALT). The note with it: obese Zucker rats; mean ± SE.
In series [2] the test system is Obese Zucker rats. The series is described as follows: In vivo assessment in obese Zucker rats: blood lipid profile (total cholesterol, triglycerides, HDL). The note with it: daily 400 μg Cr(III)/kg, 8 weeks, mean.
The subject of series [3] is Obese Zucker rats. The experiment in a line: In vivo assessment in obese Zucker rats: other vascular inflammation markers (cAMP, TNFα, IL-6, OxyDNA). The note with it: obese Zucker rats, daily 400 μg Cr(III)/kg, 8 weeks, mean ± SE; for OxyDNA: oxidative DNA damage.
In series [4] the test system is Obese Zucker rats. The series is described as follows: In vivo assessment in obese Zucker rats: vascular inflammation markers (MCP-1, CRP, RBP-4, leptin, ICAM, adiponectin). The note with it: obese Zucker rats, daily 400 μg Cr(III)/kg, 8 weeks, mean; for Adiponectin / CRP / MCP-1: plasma, ELISA. Background: An ELISA detects its analyte on a solid surface through an enzyme-linked reagent.

Series [5] deals with Obese Zucker rats. The series is described as follows: In vivo assessment in obese Zucker rats: key biological parameters (fasting glucose, HbA1c, vitamin C, GSH, RBC lipid peroxidation). As to conditions: obese Zucker rats, daily 400 μg Cr(III)/kg, 8 weeks, mean; for RBC Lipid Peroxidase: malondialdehyde by thiobarbituric acid; for Fasting Glucose: fasted overnight.
Series [6] relates to Obese Zucker rats. The note with it: rat, in vivo.

Like-named read-outs stand apart in the source and are kept apart here.

On to “Chromium tris(5-hydroxytryptophan) [Cr(5HTP)3]”, for which, in the series with Obese Zucker rats [1], the “ALT (Alanine Aminotransferease)” value is listed as 167.00 u/L, the “AP (Alkaline phosphatase)” value worked out at 25.00 u/L, the “AST (Aspartate Aminotransferase)” value is 267.43 u/L and the “Anion Gap” value turned out to be 29.43. Also, in the series on Obese Zucker rats [1], the “BUN (Blood Urea Nitrogen)” value is 22.86 mg/dL, the “BUN/CRT Ratio” value is given as 57.29, the “CRT (Creatinine)” value was 0.40 mg/dL and the “Total Bilirubin” value was 0.10 mg/dL. In the series with Obese Zucker rats [2], the HDL is given as 68.84 mg/dL, the “Total Chol/HDL” value amounted to 2.72 ratio, the “Total Cholesterol” value is 184.77 mg/dL and the Triglyceride turned out to be 452.96 mg/dL. In the series on Obese Zucker rats [3], this molecule gave an IL-6 of 94.32 ± 11.71 pg/mL, a TNFα of 13.35 ± 8.28 pg/mL, a cAMP of 25.64 ± 2.39 pmol/mL and an OxyDNA of 45.89 ± 4.53 ng/mL. Moreover, in the series on Obese Zucker rats [4], the Leptin is given as 359.61 pg/mL, the RBP-4 turned out to be 44517.99 ng/mL, the Adiponectin was determined as 11831.51 ng/mL and the CRP was 589.26 ng/mL. This molecule displayed an MCP-1 with Obese Zucker rats [4] of 1932.18 pg/mL. Also, in the series with Obese Zucker rats [5], the “RBC Lipid Peroxidase” value was 1.93 nmol/mL, the “Fasting Glucose” value is 585.25 mg/dL, the GSH came to 5.04 µmol/g and the HbA1c stood at 16.15%.
For the molecule “Chromium Picolinate + Biotin [CrP + Biotin]”, in the series on Obese Zucker rats [6], the “ALT (Alanine Aminotransferease)” value came out at 100.71 u/L, the “AP (Alkaline phosphatase)” value stood at 64.00 u/L, the “AST (Aspartate Aminotransferase)” value is recorded as 160.29 u/L and the “Anion Gap” value was 25.86. Further, in the series on Obese Zucker rats [6], the “BUN (Blood Urea Nitrogen)” value was 19.14 mg/dL, the “BUN/CRT Ratio” value is 46.50, the “CRT (Creatinine)” value amounted to 0.41 mg/dL and the “Total Bilirubin” value is 0.10 mg/dL.
“Chromium Glucodinicotinate [Cr(nic)2Gluc]”: in the series on Obese Zucker rats [6], the “BUN/CRT Ratio” value turned out to be 53.67. In addition, in the series with Obese Zucker rats [1], the “ALT (Alanine Aminotransferease)” value was found to be 138.00 u/L, the “AP (Alkaline phosphatase)” value is on record as 27.00 u/L, the “AST (Aspartate Aminotransferase)” value was 238.67 u/L and the “Anion Gap” value was 29.00. Besides, in the series on Obese Zucker rats [1], the “BUN (Blood Urea Nitrogen)” value worked out at 21.33 mg/dL, the “CRT (Creatinine)” value is 0.40 mg/dL and the “Total Bilirubin” value stood at 0.10 mg/dL. In the series with Obese Zucker rats [2], the HDL worked out at 65.71 mg/dL, the “Total Chol/HDL” value was 3.06 ratio, the “Total Cholesterol” value amounted to 197.33 mg/dL and the Triglyceride stood at 534.43 mg/dL. In the series on Obese Zucker rats [3], this molecule had an IL-6 of 81.59 ± 5.21 pg/mL, a TNFα of 29.40 ± 8.87 pg/mL, a cAMP of 22.25 ± 1.58 pmol/mL and an OxyDNA of 45.10 ± 3.76 ng/mL. In the series on Obese Zucker rats [4], this molecule gave a Leptin of 388.37 pg/mL, an RBP-4 of 48851.14 ng/mL, an Adiponectin of 11448.39 ng/mL and a CRP of 530.74 ng/mL. The MCP-1 in the series with Obese Zucker rats [4] is recorded as 1977.46 pg/mL. Also, in the series on Obese Zucker rats [5], the “RBC Lipid Peroxidase” value stood at 2.00 nmol/mL, the “Fasting Glucose” value is 474.38 mg/dL, the GSH worked out at 4.62 µmol/g and the HbA1c is recorded as 15.21%.
As to Chromium Cinnamate [CrCin], in the series with Obese Zucker rats [6], the “ALT (Alanine Aminotransferease)” value amounted to 158.71 u/L, the “AP (Alkaline phosphatase)” value amounted to 30.71 u/L, the “AST (Aspartate Aminotransferase)” value was determined as 230.14 u/L and the “Anion Gap” value came to 29.86. In the series on Obese Zucker rats [6], the “BUN (Blood Urea Nitrogen)” value was determined as 21.43 mg/dL, the “BUN/CRT Ratio” value came to 51.86, the “CRT (Creatinine)” value is listed as 0.41 mg/dL and the “Total Bilirubin” value came out at 0.10 mg/dL. Also, in the series with Obese Zucker rats [2], the HDL is 65.44 mg/dL, the “Total Chol/HDL” value was 2.94 ratio, the “Total Cholesterol” value came out at 191.11 mg/dL and the Triglyceride is listed as 507.35 mg/dL. In the series with Obese Zucker rats [3], this molecule gave an IL-6 of 92.94 ± 13.21 pg/mL, a TNFα of 8.62 ± 4.90 pg/mL, a cAMP of 29.24 ± 0.61 pmol/mL and an OxyDNA of 48.71 ± 1.25 ng/mL. In the series on Obese Zucker rats [4], this molecule returned a Leptin of 379.18 pg/mL, an RBP-4 of 47905.13 ng/mL, an Adiponectin of 11507.60 ng/mL and a CRP of 587.35 ng/mL. This molecule registered an MCP-1 in the series on Obese Zucker rats [4] of 2428.69 pg/mL. In addition, in the series with Obese Zucker rats [5], the “RBC Lipid Peroxidase” value was found to be 3.12 nmol/mL, the “Fasting Glucose” value is on record as 557.37 mg/dL, the GSH was determined as 5.00 µmol/g and the HbA1c was found to be 15.61%.
For Chromium Tryptophanate [CrTrp], in the series with Obese Zucker rats [1], the “ALT (Alanine Aminotransferease)” value is on record as 124.29 u/L, the “AP (Alkaline phosphatase)” value turned out to be 30.00 u/L, the “AST (Aspartate Aminotransferase)” value turned out to be 237.43 u/L and the “Anion Gap” value came to 30.14. In addition, in the series with Obese Zucker rats [1], the “BUN (Blood Urea Nitrogen)” value stood at 17.43 mg/dL, the “BUN/CRT Ratio” value is reported as 45.86, the “CRT (Creatinine)” value is listed as 0.39 mg/dL and the “Total Bilirubin” value was found to be 0.10 mg/dL. Also, in the series with Obese Zucker rats [2], the HDL was found to be 60.54 mg/dL, the “Total Chol/HDL” value is 3.46 ratio, the “Total Cholesterol” value turned out to be 208.09 mg/dL and the Triglyceride was determined as 921.22 mg/dL. In addition, in the series on Obese Zucker rats [3], the IL-6 is listed as 86.62 ± 6.81 pg/mL, the TNFα was found to be 36.61 ± 14.89 pg/mL, the cAMP stood at 20.03 ± 0.96 pmol/mL and the OxyDNA is listed as 45.14 ± 2.77 ng/mL. Also, in the series with Obese Zucker rats [4], the Leptin is recorded as 601.72 pg/mL, the RBP-4 is on record as 60593.24 ng/mL, the Adiponectin stood at 11122.93 ng/mL and the CRP amounted to 609.82 ng/mL. This molecule also returned an MCP-1 in the series with Obese Zucker rats [4] of 2578.59 pg/mL. Besides, in the series with Obese Zucker rats [5], the “RBC Lipid Peroxidase” value is 1.78 nmol/mL, the “Fasting Glucose” value was found to be 402.77 mg/dL, the GSH was 4.54 µmol/g and the HbA1c amounted to 14.16%.
Consider “Chromium Triphenylalanine [Cr(Phe)3, reference compound]”, for which, in the series on Obese Zucker rats [1], the “ALT (Alanine Aminotransferease)” value is 186.29 u/L, the “AP (Alkaline phosphatase)” value amounted to 30.00 u/L, the “AST (Aspartate Aminotransferase)” value is 276.43 u/L and the “Anion Gap” value stood at 29.00. In the series on Obese Zucker rats [1], the “BUN (Blood Urea Nitrogen)” value worked out at 20.71 mg/dL, the “BUN/CRT Ratio” value is 52.14, the “CRT (Creatinine)” value stood at 0.40 mg/dL and the “Total Bilirubin” value is reported as 0.10 mg/dL. Also, in the series on Obese Zucker rats [2], the HDL worked out at 60.82 mg/dL, the “Total Chol/HDL” value is listed as 2.84 ratio, the “Total Cholesterol” value came out at 169.68 mg/dL and the Triglyceride came out at 467.04 mg/dL. In the series with Obese Zucker rats [3], this molecule gave an IL-6 of 89.82 ± 8.55 pg/mL, a TNFα of 15.92 ± 7.76 pg/mL, a cAMP of 29.62 ± 1.01 pmol/mL and an OxyDNA of 53.11 ± 4.76 ng/mL. In the series on Obese Zucker rats [4], this molecule had a Leptin of 387.92 pg/mL, an RBP-4 of 48555.98 ng/mL, an Adiponectin of 11243.47 ng/mL and a CRP of 533.12 ng/mL. This molecule also gave an MCP-1 in the series with Obese Zucker rats [4] of 2064.89 pg/mL. Besides, in the series on Obese Zucker rats [5], the “RBC Lipid Peroxidase” value is 2.01 nmol/mL, the “Fasting Glucose” value is 549.70 mg/dL, the GSH was found to be 4.50 µmol/g and the HbA1c is reported as 15.04%.
Regarding `CCC(=O)[O-].CCC(=O)[O-].CCC(=O)[O-].[Cr+3]` [CrProp, Chromium Propionate, reference compound], in the series on Obese Zucker rats [1], the “ALT (Alanine Aminotransferease)” value is 207.00 u/L, the “AP (Alkaline phosphatase)” value was 32.20 u/L, the “AST (Aspartate Aminotransferase)” value is listed as 347.25 u/L and the “Anion Gap” value turned out to be 29.20. For the same molecule, in the series with Obese Zucker rats [1], the “BUN (Blood Urea Nitrogen)” value stood at 22.25 mg/dL, the “BUN/CRT Ratio” value is given as 53.40, the “CRT (Creatinine)” value amounted to 0.40 mg/dL and the “Total Bilirubin” value came to 0.10 mg/dL. In the series with Obese Zucker rats [2], the HDL worked out at 64.19 mg/dL, the “Total Chol/HDL” value was determined as 2.68 ratio, the “Total Cholesterol” value is 170.56 mg/dL and the Triglyceride is given as 456.14 mg/dL. In the series on Obese Zucker rats [3], this molecule showed an IL-6 of 90.50 ± 14.02 pg/mL, a TNFα of 41.14 ± 10.06 pg/mL, a cAMP of 26.95 ± 1.13 pmol/mL and an OxyDNA of 47.19 ± 5.07 ng/mL. In the series on Obese Zucker rats [4], this molecule showed a Leptin of 393.47 pg/mL, an RBP-4 of 49851.91 ng/mL, an Adiponectin of 12903.52 ng/mL and a CRP of 820.04 ng/mL. In the series on Obese Zucker rats [4], this molecule registered an MCP-1 of 4497.83 pg/mL. In the series on Obese Zucker rats [5], the “RBC Lipid Peroxidase” value was found to be 2.18 nmol/mL, the “Fasting Glucose” value is given as 549.49 mg/dL, the GSH turned out to be 4.76 µmol/g and the HbA1c stood at 16.90%.

(Values after patent US9700546B2, “Trivalent chromium compounds, compositions and methods of use” (INTERHEALTH NUTRACEUTICALS, INC., priority 2006, dated 2017).)
